Experimental data as given in paper PMC4072668, “Mass Spectrometric Detection and Characterization of Atypical Membrane-Bound Zinc-Sensitive Phosphatases Modulating GABAA Receptors” (PLoS ONE, 2014).
Where two headings read alike, the source gives them in different places. One block for each compound: values may come before it. Non-standard residues stand in square brackets, D forms with d. No end group written: not given here. pT = C[C@@H](OP(=O)(O)O)[C@H](N)C(=O)O; pS = N[C@@H](COP(=O)(O)O)C(=O)O

Experiments:
[1] = tested on: membrane-bound phosphatase dephosphorylating GABAAR; parameters: method as in PMID 10762086; conditions: cited from earlier work
[2] = tested on: GABAA receptor currents in pyramidal neurons; parameters: method as in PMID 15342727; conditions: cited from earlier work
[3] = tested on: membrane-bound phosphatase activities of washed cortical membrane; assay: LC-MS/MS phosphatase assay with effectors, N-terminal phosphopeptide pI2α1N-P as substrate; assay type: biochemical; conditions: substrate pI2α1N-P; for IC50: 1 mM Mg2+, 30°C, 10 min, read-out: IC50
Description: (§1) Phosphatasic activity of bovine, rat and human washed cortical membranes was measured by using synthetic phosphopeptides as substrates. Reactions were performed in presence of 50 µg/ml (total proteins) of washed cortical membrane, 10 mM Hepes-Tris pH 7.4 and 1 mM MgCl2. Enzymatic reactions were initiated by adding 10 µM of phosphopeptide incubated for 10 min at 30°C and stopped by adding ice-cold acetic acid at a final concentration of 10% (w/v). Following a 800 g centrifugation during 10 min at 4°C, the supernatants were analyzed by LC-MS/MS. […] For these reasons, and to avoid micro-capillary column obstruction we have preferentially used the micro-LC column to characterize the pharmacological profile of phosphatasic activities.
(§2) Quantification of appearance of the native peptide and disappearance of the phosphopeptide in different conditions was performed using the calibration curve plotted using the Xcalibur software (P/N 64018-XCALI version 1.3). The calibration curve and linear regression were constructed using a series of standards, native and phosphorylated equimolar mixture, N- or C-terminal peptides at different concentrations 0.5, 1, 2, 5 and 10 µM (n = 2) in 10 mM Hepes pH 7.4, 1 mM Mg^2+ and 10% acetic acid, which was the same milieu condition as in the phosphatase assay after stopping reactions. The linear regression represents peak area of MS/MS chromatogram spectra depending on the peptide concentration (Figure S1).
(§3) Different effectors were tested by addition to the incubation medium at variable concentration: the dicationic ions Mg^2+, Ca^2+, Zn^2+ were used as chloride, the polycation spermine as hydrochloride, the anion F^− as sodium fluoride (NaF), and the inhibitors of some known phosphatases okadaic acid and the two (+/−) enantiomers of p–bromotetramisole oxalate (p-Br-t). For the inhibitory effects, relative 50% inhibition concentration (IC50) values were either determined graphically with a log-scale for the concentration axis or by the ‘log (inhibitor) vs. response’ nonlinear fit of Prism 5 software (GraphPad), considering activity in the absence of inhibitor as 100%.
Figure 4 Effects of various inhibitors on the membrane-bound phosphatase activities. […] Incubations were performed at 30°C during 10 min. The activities are expressed as a percentage of that of control samples without inhibitors. Inhibition profiles of PPase activities by okadaic acid were performed using N-terminal phosphopeptide (A) or C-terminal phosphopeptide (B) as substrate. The data points are means ± SEM of 3 experiments. The red arrows indicate the different IC50. […] Data points are the average ± SEM of duplicate assays. (D) Effect of Ca^2+ ions, fluoride (F^−) and spermine (SPM^4+) on PPase activity using N-terminal phosphopeptide as substrate.

[4] = tested on: membrane-bound phosphatase activities of washed cortical membranes; assay: Enzyme kinetics of membrane-bound phosphatase activities with phosphopeptide substrates; assay type: biochemical; conditions: for Km / Vmax: phosphopeptide as substrate, 50 µg/ml membrane proteins, 30°C, 10 min, Michaelis-Menten fit
Description: Phosphatasic activity of bovine, rat and human washed cortical membranes was measured by using synthetic phosphopeptides as substrates. Reactions were performed in presence of 50 µg/ml (total proteins) of washed cortical membrane, 10 mM Hepes-Tris pH 7.4 and 1 mM MgCl2. Enzymatic reactions were initiated by adding 10 µM of phosphopeptide incubated for 10 min at 30°C and stopped by adding ice-cold acetic acid at a final concentration of 10% (w/v). Following a 800 g centrifugation during 10 min at 4°C, the supernatants were analyzed by LC-MS/MS. This centrifugation step was critical to remove membrane suspension that interferes with nano-LC and MS analysis. For these reasons, and to avoid micro-capillary column obstruction we have preferentially used the micro-LC column to characterize the pharmacological profile of phosphatasic activities.
The best conditions of incubation time and total protein concentration of washed cortical membranes were determined for assaying phosphatase activity with 10 µM of pI2α1 phosphopeptide. Protein concentration varied from 1 to 300 µg/ml and incubation time from 0.25 to 30 min, at fixed temperature of 30°C as in previous studies. Initial velocity of the enzymatic reaction was determined by linear regression (slope value). The optimal conditions were obtained with 50 µg/ml total membrane protein concentration and 10 min incubation time. The effects of the substrate effects were measured by varying the pI2α1N-P and pI2α1C-P concentrations between 3 and 75 µM. Saturation plots were generated via non-linear fit to the Michaelis-Menten equation. The affinity constant (Km) and maximum velocity (Vmax) were evaluated from this curve fitting using the Prism 5 computer program (GraphPad). Double-reciprocal plots with the Lineweaver-Burk equation were also drawn by linear fits using the same software.
Figure 2 LC-MS/MS detection and kinetics analysis of GABAAR α1-subunit phosphatase activities. (A) Dose-dependency at various protein concentrations; (B) time course of phosphatase activities using 50 µg/ml of total proteins of washed cortical membranes from bovine brain and (C) from human epileptic tissue. The N-terminal phosphopeptide (pI2α1N-P) used as substrate at 10 µM was incubated during 10 min at 30°C in 10 mM Hepes (pH 7.4) in the presence of 1 mM Mg^2+. The enzymatic reactions were stopped with 10% acetic acid and the samples were analyzed by LC-MS/MS as in figure 1E, F. The dephosphorylation rate was quantified by measuring simultaneously the quantity of the produced native peptide (pI2α1N) and of the remaining phosphorylated substrate (pI2α1N-P). Error bars represent SEM of two experiments. Kinetic analysis of GABAAR α1-subunit phosphatase activities was investigated using N-terminal (pI2α1N-P) and C-terminal (pI2α1C-P) phosphopeptides. All experiments were carried out with 50 µg/ml membrane proteins concentration, incubated at 30°C during 10 min, in presence of different concentrations of substrates. (D) Saturation plot of the initial velocity Vi versus [pI2α1N-P] and Lineweaver-Burk plots of 1/V versus 1/[pI2α1N-P] […] (E) Saturation plot of Vi versus [pI2α1C-P] and Lineweaver-Burk plot of 1/V versus 1/[pI2α1C-P] (inset). The data points are means ± SEM of 3 experiments.

alkaline phosphatase = tested on: alkaline phosphatase; parameters: method as in PMID 10898722; conditions: cited from earlier work
[5] = tested on: membrane-bound phosphatase activities of rat washed cortical membrane; assay: LC-MS/MS phosphatase assay, Zn2+ profile, N-terminal phosphopeptide pI2α1N-P as substrate; assay type: biochemical; conditions: for IC50: substrate pI2α1N-P 10 µM, 1 mM Mg2+, 30°C, 10 min, two-step fit
Description: as §1, §2, §3
Assays were performed in presence of rat washed cortical membrane at 50 µg/ml of total protein concentration, with increasing amounts of Zn^2+ ions in 10 mM Hepes buffer pH 7.4 with 1 mM Mg^2+ in presence of. Incubations were performed at 30°C during 10 min. The activities are expressed as a percentage of that of control samples. […] (H) PPase activity at very low Zn^2+ concentrations (1 pM–200 nM). The IC50 values are mentioned with their 95% confidence intervals and calculated from nonlinear regression curve fits using GraphPad Prism 5.

[6] = tested on: membrane-bound phosphatase activities of rat washed cortical membrane; assay: LC-MS/MS phosphatase assay, Zn2+ profile, C-terminal phosphopeptide pI2α1C-P as substrate; assay type: biochemical; conditions: for IC50: substrate pI2α1C-P 10 µM, 1 mM Mg2+, 30°C, 10 min, two-step fit
Description: as §1, §2
Different effectors were tested by addition to the incubation medium at variable concentration: the dicationic ions Mg^2+, Ca^2+, Zn^2+ were used as chloride, the polycation spermine as hydrochloride, the anion F^− as sodium fluoride (NaF), and the inhibitors of some known phosphatases okadaic acid and the two (+/−) enantiomers of p–bromotetramisole oxalate (p-Br-t). […]
Assays were performed in presence of rat washed cortical membrane at 50 µg/ml of total protein concentration, with increasing amounts of Zn^2+ ions in 10 mM Hepes buffer pH 7.4 with 1 mM Mg^2+ in presence of. […] The activities are expressed as a percentage of that of control samples. […]

[7] = read-out: IC50 (H), high affinity
[8] = read-out: IC50 (L), low affinity

Compound: [Na+].[Na+].[Na+].[O]=[V]([O-])([O-])[O-] [sodium orthovanadate]
inhibition of membrane phosphatases [1]: inhibits
effect on rundown of GABAA currents [2]: reduced rundown

inhibition of phosphatase activities ([3]; 1 mM): 10%
inhibition of phosphatase activities ([3]; 10 mM): 20%
IC50 [3]: > 10000 µM
Compound: NCCCNCCCCNCCCN [Spermine, spermine]

inhibition of phosphatase activities ([3]; 1 mM): 30%
inhibition of phosphatase activities ([3]; 10 mM): less than 60%
IC50 [3]: ~5000 µM
Compound: [Ca+2].[Cl-].[Cl-] [Ca^2+, CaCl2]

reduction in catalytic efficiency (Vmax/Km) compared to the phosphothreonine peptide PI2α1N-P [4]: eightfold reduction
Km [4]: 116 ± 20 µM
Vmax [4]: 1290±150 pM.min^−1.ml^−1
Compound: EPKKTFNSV[pS]KIDR [pI2α1C-P]

Compound: Brc1ccc(C2CN3CCSC3=N2)cc1.O=C(O)C(=O)O (single isomer, unassigned; (-)) [(−)-p--Br--t, (−)-p-bromotetramisole oxalate]
inhibition of alkaline phosphatase (alkaline phosphatase): potent alkaline phosphatase inhibitor
inhibition of membrane phosphatase activities ([3]; 1 mM): completely inhibited
IC50 [3]: 300 µM

Compound: [F-].[Na+] [fluoride (F^−), sodium fluoride]
inhibition of phosphatase activities ([3]; 1 mM): 45%
inhibition of phosphatase activities ([3]; 10 mM): ~90%
IC50 ([3]; listed as Sodium fluoride): < 2000 µM
IC50 [3]: ~2000 µM

effect on phosphatasic activities at low concentrations ([5]; 1 pM–200 nM Zn2+, substrate pI2α1N-P): several activations
inhibition of phosphatase activities ([5]; 1 mM Zn2+, substrate pI2α1N-P): completely inhibited
IC50 [5, 7]: 1.7 µM
IC50 [5, 8]: 48 µM
inhibition of phosphatase activities ([6]; 1 mM Zn2+, substrate pI2α1C-P): completely inhibited
IC50 [6, 7]: 0.6 µM
IC50 [6, 8]: 15 µM
Compound: [Cl-].[Cl-].[Zn+2] [Zn^2+, Zinc chloride]
inhibition of membrane-bound phosphatase activity ([1]; concentrations between 0.1 µM-1 mM): inhibited
inhibition of GABAAR dephosphorylation ([1]; washed brain membranes, autoradiographic method): complete inhibition

Km [4]: 25.4 ± 3.3 µM
Vmax [4]: 2320±130 pM.min^−1.ml^−1
Compound: NYF[pT]KRGYAWDGK [pI2α1N-P]

effect of increasing concentration on phosphatase activities ([3]; 1 µM to 1 mM, data not shown): moderate but not linear increase
Compound: [Cl-].[Cl-].[Mg+2] [Mg^2+, MgCl2]

Compound: Brc1ccc(C2CN3CCSC3=N2)cc1.O=C(O)C(=O)O (single isomer, unassigned; (+)) [(+)-p--Br--t, (+)-p-bromotetramisole oxalate]
inhibition of alkaline phosphatase (alkaline phosphatase): completely insensitive
inhibition of membrane phosphatase activities ([3]; 1 mM): completely inhibited
IC50 [3]: 100 µM
